Active and inactive are the calls of the source. The rule behind the calls is not given here.

Experiment [1] can be described thus: Inhibition of Plasmodium falciparum recombinant SAHH.
Experiment [2] concerns the target T1, Adenosylhomocysteinase (Homo sapiens, UniProt P23526). Nature of the experiment: Inhibition of human recombinant SAHH.
Target sequence in this assay (P23526 whole entry): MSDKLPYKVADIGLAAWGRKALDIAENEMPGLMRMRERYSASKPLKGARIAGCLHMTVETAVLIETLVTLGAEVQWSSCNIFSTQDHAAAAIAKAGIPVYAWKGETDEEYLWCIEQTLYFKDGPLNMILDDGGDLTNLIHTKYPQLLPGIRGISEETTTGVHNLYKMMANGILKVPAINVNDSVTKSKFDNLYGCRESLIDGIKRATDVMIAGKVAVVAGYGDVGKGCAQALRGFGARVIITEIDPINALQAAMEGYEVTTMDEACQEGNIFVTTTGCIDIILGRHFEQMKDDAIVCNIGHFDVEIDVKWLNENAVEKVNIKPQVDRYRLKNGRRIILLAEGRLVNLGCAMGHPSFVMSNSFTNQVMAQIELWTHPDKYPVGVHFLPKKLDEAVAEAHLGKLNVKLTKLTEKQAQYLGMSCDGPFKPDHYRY
For the next experiment, the system named is Plasmodium falciparum. The experiment in a line: (§1) Inhibition of Plasmodium falciparum recombinant SAHH at 1000 uM.
For experiment [3], the target named is T1, Adenosylhomocysteinase. Nature of the experiment: Inhibition of human recombinant SAHH at 1000 uM.
Target sequence in this assay (P23526 2-432 limits assumed): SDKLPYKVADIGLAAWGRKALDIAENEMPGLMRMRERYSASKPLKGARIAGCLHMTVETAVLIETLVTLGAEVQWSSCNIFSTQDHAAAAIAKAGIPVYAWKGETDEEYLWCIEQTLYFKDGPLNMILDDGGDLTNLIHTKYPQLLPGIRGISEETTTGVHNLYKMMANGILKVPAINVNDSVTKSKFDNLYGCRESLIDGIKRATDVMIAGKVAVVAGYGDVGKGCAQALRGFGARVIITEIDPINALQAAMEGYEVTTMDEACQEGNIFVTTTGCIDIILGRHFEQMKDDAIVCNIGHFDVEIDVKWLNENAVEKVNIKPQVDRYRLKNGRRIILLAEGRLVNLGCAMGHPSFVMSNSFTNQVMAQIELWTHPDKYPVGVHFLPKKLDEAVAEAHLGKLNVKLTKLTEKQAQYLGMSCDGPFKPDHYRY
Experiment [4] in a line: as §1.

As to `Nc1ncnc2c1ncn2[C@@H]1C[C@@H](N)[C@@H](O)[C@H]1O`, the IC50 (in experiment [1]; at Adenosylhomocysteinase [2]) was greater than 500 µM throughout.

Consider `Nc1ncnc2c1ncn2[C@@H]1C[C@H](OS(=O)(=O)O)[C@@H](O)[C@H]1O`, for which the outcome in the experiment with Plasmodium falciparum and at Adenosylhomocysteinase [3] was inactive.

Regarding `Nc1nc(N)c2ncn([C@@H]3C[C@@H](OS(=O)(=O)O)[C@@H](O)[C@H]3O)c2n1`, the outcome with Plasmodium falciparum and at Adenosylhomocysteinase [3] was inactive.

Consider `Nc1nc(N)c2ncn([C@@H]3C[C@H](OS(N)(=O)=O)[C@@H](O)[C@H]3O)c2n1`, for which the result in the experiment with Plasmodium falciparum and on Adenosylhomocysteinase [3] was inactive.

`[N-]=[N+]=N[C@@H]1C[C@@H](n2cnc3c(N)ncnc32)[C@H](O)[C@@H]1O`: the concentration for half-maximal inhibition (IC50) in experiment [1] worked out at 90 µM; at Adenosylhomocysteinase [2] it was 163 µM.

`Nc1ncnc2c1ncn2[C@@H]1C[C@@H](OS(N)(=O)=O)[C@@H](O)[C@H]1O`: the result in the experiment on Plasmodium falciparum and on Adenosylhomocysteinase [3] was inactive.

Take `Nc1ncnc2c1ncn2[C@@H]1C[C@H](N)[C@@H](O)[C@H]1O`: the IC50 in experiment [1] was 126 µM; on Adenosylhomocysteinase [2] it was 76 µM.

On to `Nc1ncnc2c1ncn2[C@@H]1CC[C@@H](O)[C@H]1O`, for which the IC50 in experiment [4] came out at 9 µM.

On to `Nc1nc(N)c2ncn([C@@H]3C[C@@H](OS(N)(=O)=O)[C@@H](O)[C@H]3O)c2n1`, for which the result in the experiment on Plasmodium falciparum and at Adenosylhomocysteinase [3] was inactive.

As to `Nc1ncnc2c1ncn2[C@@H]1C[C@H](OS(N)(=O)=O)[C@@H](O)[C@H]1O`, the outcome with Plasmodium falciparum and on Adenosylhomocysteinase [3] was inactive.

For `Nc1ncnc2c1ncn2[C@@H]1C[C@H](F)[C@@H](O)[C@H]1O`, the IC50 in experiment [1] worked out at 200 µM. Also, the result on Adenosylhomocysteinase [3] was inactive.

As to `Nc1ncnc2c1ncn2[C@@H]1C[C@@H](OS(=O)(=O)O)[C@@H](O)[C@H]1O`, the result in the experiment on Plasmodium falciparum and on Adenosylhomocysteinase [3] was inactive.

Regarding `Nc1ncnc2c1ncn2[C@@H]1C[C@H](O)[C@@H](O)[C@H]1O` [NORARISTEROMYCIN], the IC50 in experiment [1] turned out to be 1.1 µM; at Adenosylhomocysteinase [2], 3.1 µM.

In the case of `Nc1ncnc2c1ncn2[C@@H]1C[C@@H](F)[C@@H](O)[C@H]1O`, the outcome in the experiment on Plasmodium falciparum and at Adenosylhomocysteinase [3] was inactive.

For `Nc1ncnc2c1ncn2[C@@H]1C[C@@H](O)[C@@H](O)[C@H]1O`, the IC50 in experiment [1] turned out to be 79 µM; at Adenosylhomocysteinase [2], 7.6 µM.

Consider `[N-]=[N+]=N[C@H]1C[C@@H](n2cnc3c(N)ncnc32)[C@H](O)[C@@H]1O`, for which the IC50 in experiment [1] stood at 117 µM; at Adenosylhomocysteinase [2], 123 µM.

For the compound `Nc1nc(F)nc2c1ncn2[C@@H]1C[C@H](O)[C@@H](O)[C@H]1O`, the IC50 is 63 µM in experiment [1] and 13 µM on Adenosylhomocysteinase [2].

As to `Nc1nc(N)c2ncn([C@@H]3C[C@H](OS(=O)(=O)O)[C@@H](O)[C@H]3O)c2n1`, the outcome with Plasmodium falciparum and at Adenosylhomocysteinase [3] was inactive.

Broadly, the IC50 is the concentration at which inhibition is half-maximal.

Values taken from ChEMBL document CHEMBL1144794, “Synthesis of 4'-modified noraristeromycins to clarify the effect of the 4'-hydroxyl groups for inhibitory activity against S-adenosyl-L-homocysteine hydrolase” (Bioorg Med Chem Lett, 2008).
